Assay results published in patent US8012987B2, “Indolo[2,1-b] quinazole-6,12-dione antimalarial compounds and methods of treating malaria therewith” (The United States of America as represented by the …, priority 1998, dated 2011).
In brackets after ≈: the same amount, converted by molar mass. Several values for one entry are separate records, joined by “and”; a condition that tells them apart may be missing. Equal entries are not always repeated. Where two headings read alike, the source gives them in different places.

Tests used:
Assay type in all cases: cell-based
[1] = test system: Plasmodium falciparum clone CDC Indochina III (W-2); assay: In vitro inhibition of [3H]hypoxanthine uptake, P. falciparum W-2 clone; conditions: for IC50: Plasmodium falciparum, read-out: IC50 (W-2)
Procedure: (§1) The in vitro assays were conducted by using a modification of the semiautomated microdilution technique of Desjardins et al.^11 and Chulay et al.^12 Two strains of Plasmodium falciparum clones, from CDC Indochina III (W-2), CDC Sierra Leone I (D-6). […] These solutions were subsequently serially diluted 2-fold with a Biomek 1000® (Beckman, Fullerton, Calif.) over 11 different concentrations. The parasites were exposed to serial dilutions of each compound for 48 h and incubated at 37° C. with 5% O2, 5% CO2, and 90% N2 prior to the addition of [^3H]hypoxanthine. […] Uptake of [^3H]hypoxanthine was measured with a Packard Topcount scintillation counter. […] The values without parentheses indicate culture in blood serum which more closely resemble conditions in a living animal.
(§2) The numbers associated with both W2 and D6 refer to IC50 values and the units are ng/ml.

[2] = test system: Plasmodium falciparum clone Thai TM90C2B; assay: In vitro inhibition of [3H]hypoxanthine uptake, P. falciparum TM90C2B; conditions: values without parentheses: blood serum (footnote: blood plasma) replacing Albumax; for IC50: Plasmodium falciparum, TM90C2B
Procedure: (§3) The in vitro assays were conducted by using a modification of the semiautomated microdilution technique of Desjardins et al.^11 and Chulay et al.^12 Two strains of Plasmodium falciparum clones, from CDC Indochina III (W-2), CDC Sierra Leone I (D-6). […] They were derived by direct visualization and micromanipulation from patient isolates.^13 Test compounds were initially dissolved in DMSO and diluted 400-fold in RPMI 1640 culture medium supplemented with 25 mM Hepes, 32 mM HaHCO3, and 10% Albumax I® (GIBCO BRL, Grand Island, N.Y.). These solutions were subsequently serially diluted 2-fold with a Biomek 1000® (Beckman, Fullerton, Calif.) over 11 different concentrations. The parasites were exposed to serial dilutions of each compound for 48 h and incubated at 37° C. with 5% O2, 5% CO2, and 90% N2 prior to the addition of [^3H]hypoxanthine. After a further incubation of 18 h, parasite DNA was harvested from each microtiter well using Packard Filtermate 196 Harvester® (Meriden, Conn.) onto glass filters. Uptake of [^3H]hypoxanthine was measured with a Packard Topcount scintillation counter. […] This procedure was repeated with the test compounds initially dissolved in DMSO and diluted 400-fold in RPMI 1640 culture medium supplemented with 25 mM Hepes, 32 mM HaHCO3, and with blood serum replacing the 10% Albumax I® (see Table 1, figures without parentheses). The values without parentheses indicate culture in blood serum which more closely resemble conditions in a living animal.
(§4) Four strains of Plasmodium falciparum clones, from CDC Indochina III (W-2), CDC Sierra Leone I (D-6), Thai WR75-TM9, and Thai TM90C2B were utilized in susceptibility testing and the IC50 results appear in Table 1.

[3] = test system: Plasmodium falciparum clone CDC Sierra Leone I (D-6); assay: In vitro inhibition of [3H]hypoxanthine uptake, P. falciparum D-6 clone; conditions: for IC50: Plasmodium falciparum, read-out: IC50 (D-6)
Procedure: as §1, §2

[4] = test system: Plasmodium falciparum clone Thai WR75-TM9; assay: In vitro inhibition of [3H]hypoxanthine uptake, P. falciparum WR75-TM9; conditions: values without parentheses: blood serum (footnote: blood plasma) replacing Albumax; for IC50: Plasmodium falciparum
Procedure: as §3, §4

Plasmodium falciparum = assay: In vitro antimalarial activity against Plasmodium falciparum (strain not given); conditions: judged from the IC50 values of Table 1
Procedure: as §3, §4

[5] = values in parentheses: culture medium with 10% Albumax I
[6] = values without parentheses: blood serum (footnote: blood plasma) replacing Albumax

Row | IC50 [1, 5] [ng/mL] | IC50 [1, 6] [ng/mL] | IC50 [2] [ng/mL] | IC50 [3, 5] [ng/mL] | IC50 [3, 6] [ng/mL] | IC50 (W-2) [1, 6] | IC50 (TM90C2B) [2] | IC50 (D-6) [3, 6] | IC50 [4] [ng/mL] | IC50 (WR75-TM9) [4] | SMILES | effectiveness in treating/reducing malaria parasites as shown in Table 1 (Plasmodium falciparum)
1 | 2.8 (≈ 0.00999 µM) | 14.7 (≈ 0.0524 µM) | 16.4 (≈ 0.0585 µM) | 4.9 (≈ 0.0175 µM) | 22.1 (≈ 0.0787 µM) |  |  |  |  |  | Cc1ccc2nc3n(c(=O)c2c1)-c1ccc(F)cc1C3=O [Example 11] | 
2 | 1.6 (≈ 0.00563 µM) | 5.27 (≈ 0.0186 µM) | 9.74 (≈ 0.0343 µM) | 4.9 (≈ 0.0172 µM) | 8.54 (≈ 0.03 µM) | 5.787 ng/mL and 6.539 ng/mL | 16.914 ng/mL and 11.113 ng/mL | 14.239 ng/mL and 11.005 ng/mL | 12 (≈ 0.042 µM) | 16.249 ng/mL and 19.374 ng/mL | O=C1c2cc(F)ccc2-n2c1nc1cc(F)ccc1c2=O [Example 12] | 
3 | 0.84 (≈ 0.00314 µM) | 2.12 (≈ 0.00795 µM) | 4.21 (≈ 0.0157 µM) | 1.53 (≈ 0.00573 µM) | 4.93 (≈ 0.0184 µM) |  |  |  | 9.93 (≈ 0.0372 µM) | 8.002 ng/mL (≈ 0.0299 µM) | O=C1c2cc(F)ccc2-n2c1nc1ncccc1c2=O [Example 17] | 
4 | 1.58 (≈ 0.00556 µM) | 8.14 (≈ 0.0286 µM) | 9.78 (≈ 0.0344 µM) | 2.57 (≈ 0.00904 µM) | 13.5 (≈ 0.0476 µM) |  |  |  |  |  | O=C1c2cc(F)ccc2-n2c1nc1c(F)cccc1c2=O [Example 19] | 
5 | 0.43 (≈ 0.00152 µM) | 1.28 (≈ 0.00451 µM) | 2.3 (≈ 0.00811 µM) | 0.93 (≈ 0.00328 µM) | 0.926 (≈ 0.00326 µM) |  |  |  |  |  | O=C1c2cc(Cl)ccc2-n2c1nc1ncccc1c2=O [Example 21] | most effective
6 | 0.91 (≈ 0.00283 µM) |  | 7.78 (≈ 0.0242 µM) | 2.01 (≈ 0.00626 µM) | 10.1 (≈ 0.0314 µM) |  |  |  |  |  | CCOC(=O)c1ccc2c(c1)C(=O)c1nc3ncccc3c(=O)n1-2 [Example 24] | 
7 | 1.79 (≈ 0.00443 µM) |  | 41.1 (≈ 0.102 µM) | 3.01 (≈ 0.00745 µM) |  |  |  |  |  |  | COc1cccc2c(=O)n3c(nc12)C(=O)c1cc(I)ccc1-3 [Example 27] | 
8 | 1.88 (≈ 0.00573 µM) | 1.87 (≈ 0.0057 µM) | 46 (≈ 0.14 µM) | 3.57 (≈ 0.0109 µM) | 3.57 (≈ 0.0109 µM) |  |  |  | 4.2 (≈ 0.0128 µM) |  | O=C1c2cc(Br)ccc2-n2c1nc1ccncc1c2=O [Example 39] | 
9 | 0.728 (≈ 0.00242 µM) |  |  | 1.28 (≈ 0.00426 µM) |  |  |  |  | 14.2 (≈ 0.0471 µM) |  | O=C1c2cc(Cl)ccc2-n2c1nc1cc(F)ccc1c2=O [Example 45] | 
10 | 6.32 (≈ 0.0178 µM) | 23 (≈ 0.0646 µM) | 24.4 (≈ 0.0686 µM) | 7.61 (≈ 0.0214 µM) | 42.6 (≈ 0.12 µM) |  |  |  | 66.4 (≈ 0.187 µM) |  | CN(CCO)c1ccc2c(=O)n3c(nc2c1)C(=O)c1cc(Cl)ccc1-3 [Example 46] | 
11 | 2.1 (≈ 0.00703 µM) | 2.3 (≈ 0.00771 µM) | 5.48 (≈ 0.0184 µM) | 7.2 (≈ 0.0241 µM) | 11.2 (≈ 0.0376 µM) |  |  |  | 14.2 (≈ 0.0476 µM) |  | Cc1ncc2c(=O)n3c(nc2n1)C(=O)c1cc(Cl)ccc1-3 [Example 55] | 
12 | 10.6 (≈ 0.0337 µM) | 28.9 (≈ 0.0921 µM) | 62.2 (≈ 0.198 µM) | 20.3 (≈ 0.0647 µM) | 46.5 (≈ 0.148 µM) |  |  |  | 82.6 (≈ 0.263 µM) |  | N#CC(C#N)=c1c2cc(F)ccc2n2c(=O)c3ccccc3nc12 [Example 57] | 
13 | 2.73 (≈ 0.00717 µM) |  | 8.1 (≈ 0.0213 µM) | 4.52 (≈ 0.0119 µM) |  |  |  |  | 17.3 (≈ 0.0454 µM) |  | CN1CCN(c2ccc3c(=O)n4c(nc3c2)C(=O)c2cc(Cl)ccc2-4)CC1 [Example 58] | 
14 | 2.47 (≈ 0.00753 µM) | 17.7 (≈ 0.054 µM) | 24 (≈ 0.0732 µM) | 4.37 (≈ 0.0133 µM) | 37.9 (≈ 0.115 µM) |  |  |  |  |  | O=C1c2cc(Br)ccc2-n2c1nc1cnccc1c2=O [Example 59] | 
15 | 1.5 (≈ 0.0045 µM) | 1.23 (≈ 0.00369 µM) | 1.16 (≈ 0.00349 µM) | 3.16 (≈ 0.00948 µM) | 0.946 (≈ 0.00284 µM) |  |  |  | 1.97 (≈ 0.0059 µM) |  | O=C1c2cc(OC(F)(F)F)ccc2-n2c1nc1ccncc1c2=O [Example 63] | most effective
16 | 3.86 (≈ 0.0114 µM) |  | 3.73 (≈ 0.011 µM) | 7.86 (≈ 0.0232 µM) |  |  |  |  | 5.47 (≈ 0.0161 µM) |  | CN(CCO)c1ccc2c(=O)n3c(nc2c1)C(=O)c1cc(F)ccc1-3 [Example 68] | 
17 | 8.69 (≈ 0.0269 µM) | 6.1 (≈ 0.0189 µM) | 11 (≈ 0.034 µM) | 13.2 (≈ 0.0409 µM) |  |  |  |  | 24.4 (≈ 0.0754 µM) |  | COC(OC)c1ccc2c(c1)C(=O)c1nc3ccncc3c(=O)n1-2 [Example 70] | 
18 | 3.75 (≈ 0.0112 µM) | 2.85 (≈ 0.00851 µM) | 4.46 (≈ 0.0133 µM) | 5.4 (≈ 0.0161 µM) | 4.89 (≈ 0.0146 µM) |  |  |  | 10.5 (≈ 0.0313 µM) |  | COC(c1ccc2c(c1)C(=O)c1nc3ccncc3c(=O)n1-2)C(C)C (stereo not shown) [Example 73] | 
19 | 3.52 (≈ 0.0106 µM) | 59.8 (≈ 0.181 µM) | 42.5 (≈ 0.128 µM) | 2.19 (≈ 0.00661 µM) | 79.6 (≈ 0.24 µM) |  |  |  | 127 (≈ 0.384 µM) |  | O=C1c2cc(C3CCCCC3)ccc2-n2c1nc1ccncc1c2=O [Example 74] | 
20 | 0.86 (≈ 0.00246 µM) | 0.935 (≈ 0.00267 µM) | 1.76 (≈ 0.00504 µM) | 0.93 (≈ 0.00266 µM) | 1.97 (≈ 0.00561 µM) |  |  |  | 3.3 (≈ 0.00941 µM) |  | O=C1c2cc(OC(F)(F)F)ccc2-n2c1nc1cc(F)ccc1c2=O [Example 78] | most effective
21 | 1.8 (≈ 0.00649 µM) | 7.19 (≈ 0.0259 µM) | 12.9 (≈ 0.0464 µM) | 3.11 (≈ 0.0112 µM) | 15.1 (≈ 0.0546 µM) |  |  |  | 25.7 (≈ 0.0927 µM) |  | CCc1ccc2c(c1)C(=O)c1nc3ccncc3c(=O)n1-2 [Example 83] | 
22 | 2.3 (≈ 0.00641 µM) | 1.91 (≈ 0.00532 µM) | 2.08 (≈ 0.00579 µM) | 3.6 (≈ 0.01 µM) | 3.63 (≈ 0.0101 µM) |  |  |  |  |  | O=C1c2cc(Cl)ccc2-n2c1nc1cc(SCCO)ccc1c2=O [Example 86] | 
23 | 3.51 (≈ 0.0086 µM) |  | 0.696 (≈ 0.0017 µM) | 4.92 (≈ 0.012 µM) |  |  |  |  | 4.44 (≈ 0.0109 µM) |  | O=C1c2cc(OC(F)(F)F)ccc2-n2c1nc1cc(SCCO)ccc1c2=O [Example 87] | 
24 | 3.93 (≈ 0.0118 µM) | 15.6 (≈ 0.0469 µM) | 6.14 (≈ 0.0185 µM) | 7.59 (≈ 0.0228 µM) | 16.3 (≈ 0.0491 µM) |  |  |  | 30 (≈ 0.0904 µM) |  | C=CCO/N=C/c1ccc2c(c1)C(=O)c1nc3ccncc3c(=O)n1-2 [Example 90] | 
25 | 1.8 (≈ 0.00676 µM) | 5.52 (≈ 0.0207 µM) |  | 0.24 (≈ 0.000901 µM) | 9.06 (≈ 0.034 µM) | 4.977 ng/mL (≈ 0.0187 µM) |  | 10.137 ng/mL (≈ 0.0381 µM) |  | 9.941 ng/mL (≈ 0.0373 µM) | O=C1c2cc(F)ccc2-n2c1nc1ccccc1c2=O [Example 91] | 
